From patent publication US20260132165A1, “MODIFIED NUCLEOSIDE ANALOGUE AND USE THEREOF, AND NUCLEOSIDE ANALOGUE-CONTAINING DOUBLE-STRANDED OLIGONUCLEOTIDE AND USE THEREOF” (RIGERNA THERAPEUTICS (BEIJING) CO., LTD., priority 2023, published 2026)
Strand notation (5' to 3'): a small letter for the sugar, then the base; units joined by * are phosphorothioate-linked, units joined directly phosphodiester-linked; [ ] holds rarer units or linkages, { } end groups; capitals alone tell only the bases. [Uhd] = commercial lipid-conjugated uridine analogue Uhd (C16), from Hongene, reference; {VP} = (thio)vinylphosphonate on the antisense 5' nucleotide, as listed; e = 2'-O-(2-methoxyethyl) (MOE); m = 2'-O-methyl; f = 2'-fluoro

Experiments:
target gene SOD1 [1] = assay: Test Example 4: lipid conjugated siRNA sequences with different carbon chain lengths, SOD1 in mouse brain, lateral ventricle administration; assay type: in vivo, C57BL/6j mice; design: Right hemisphere Mean value of inhibition rate / Left hemisphere Mean value of inhibition rate: unit not given here; conditions: D5; for Left hemisphere Mean value of inhibition rate: left hemisphere (non-administration side); for Left hemisphere Mean value of inhibition rate / Right hemisphere Mean value of inhibition rate: lateral ventricle; for Right hemisphere Mean value of inhibition rate: right hemisphere (administration side)
Description: 6-8 Week-old C57BL/6j mice were randomly grouped by body weight. Mice in each group were administered with siRNA by lateral ventricle administration, with an administration dose per mouse depending on a specific test. Taking Bregma in mouse brain as point 0 (origin), coordinates of right ventricle were found using the cerebral stereotaxic apparatus and position was marked on surface of skull (position of lateral ventricle was AP (anteroposterior, bregma anterior and posterior): −0.58 mm, ML (mediolateral, left and right of middle raphe): −1.2 mm, DV (dorsoventral, up and down cerebral dura mater plane): −2.2 mm). A dental electric drill was used to drill in the skull above a position of interest, and then medicament was injected into the lateral ventricle by a micro-dosing pump, wherein a total injection volume was 5 μL, and injection duration was 10 min. Needle was retained for 5 min after completion of injection, and then slowly withdrawn. Afterwards, needle hole was sealed with biomedical glue, and then head skin was adhered. After animals woke up, the animals were returned back to animal house and further fed. PBS control group was administered with the same volume of siRNA-free PBS solution. The day of administration was recorded as 0 day (D0), and the mice were sacrificed at observation point after the administration. Different parts of brain region were respectively taken and stored in the RNAlater.
(§1) RNA extraction: the above tissue samples were taken out from the RNAlater, and smashed for 60 s in Tissuelyser type II full-automatic tissue homogenizer, and total RNAs of various tissue samples were extracted using the full-automatic nucleic acid extraction instrument and the nucleic acid extraction kit from Zhejiang Hanwei Science and Technology Co. Ltd. according to methods described in instructions.
(§2) Reverse transcription reaction: 1 μg of the extracted total RNAs of the tissue samples were taken, and configured into 20 μL of reverse transcription system according to a method described in kit instructions by using a reverse transcription kit (Reverse Transcription System, A3500) from Promega Corporation and selecting Oligo (dT)15 reverse transcription primers, and the reverse transcription reaction was completed. After the reaction was ended, 80 μL of RNase-Free water was added into the reverse transcription system to provide cDNA solution for Real-time PCR detection.
(§3) Real-time PCR detection: 20 μL of Real-time PCR reaction system per PCR detection well was configured according to a method described in kit instructions using SYBR™ Select Master Mix (Catalog number: 4472908) reagent from ABI company. Each detection system contained 5 μL of cDNA template obtained from the above reverse transcription reaction, 10 μL of SYBR™ Select Master Mix, 0.5 μL of 10 μM upstream primers, 0.5 μL of 10 μM downstream primers, and 4 μL of RNase-Free H2O. The configured reaction system was subjected to Real-time PCR amplification on ABI StepOnePlus PCR instrument by a three-step method, wherein an amplification procedure was pre-denaturation at 95° C. for 10 min, then denaturation at 95° C. for 30 s, annealing at 60° C. for 30 s, and extension at 72° C. for 30 s; and processes of denaturation, annealing, and extension were repeated for 40 cycles. Gene expression differences were calculated by the ΔΔCt method after completion of the procedure.
In the real-time fluorescence quantitative PCR method, relative quantitative calculation of remaining expression level and inhibition rate of gene mRNA of interest in various test groups was performed by the ΔΔCt method, and the calculation method is as follows: […]

target gene SOD1 [2] = assay: Test Example 6: inhibitory activity of NM073, NM074 conjugated siRNA sequences on SOD1 by intrathecal administration to rats; assay type: in vivo, SD rats; conditions: D28; for Cerebellum % Mean value of inhibition rate / Cortex % Mean value of inhibition rate / Hippocampus % Mean value of inhibition rate / Cervical segment % Mean value of inhibition rate / Lumbar segment % Mean value of inhibition rate / Thoracic segment % Mean value of inhibition rate: intrathecal, 900 μg per rat; for Cortex % Mean value of inhibition rate: cerebral cortex; for Cervical segment % Mean value of inhibition rate: spinal cord cervical segment; for Lumbar segment % Mean value of inhibition rate: spinal cord lumbar segment; for Thoracic segment % Mean value of inhibition rate: spinal cord thoracic segment
Description: 6-8 Week-old SD rats were randomly grouped by body weight. Rats in each group were administered with siRNA by intrathecal administration, with an administration dose of 900 μg per rat. Injection was administered from rat spinal cord L5-L6, with an administration volume of 40 μL. Needle was retained for 2 min after completion of injection, and then slowly withdrawn. PBS control group was administered with the same volume of siRNA conjugate-free PBS solution. The day of administration was recorded as 0 day (D0), and the rats were sacrificed at observation point after administration. Different segments of spinal cord and different regions of brain were respectively taken and stored in the RNAlater.
as §1, §2, §3
(§4) In the real-time fluorescence quantitative PCR method, relative quantitative calculation of remaining expression level and inhibition rate of gene mRNA of interest in various test groups was performed by the ΔΔCt method, and the calculation method is as follows:
The present test example evaluated, by an evaluation method for inhibitory activity on a target gene by intrathecal administration to rats, the inhibitory activity of siRNA sequence RZ899090 with the NM073 conjugation at Position 4, siRNA sequence RZ899091 with the NM074 conjugation at Position 4 and siRNA control sequence RZ899093 with the Uhd conjugation on the target gene SOD1 of interest in spinal cord and brain of rats. The above conjugation vectors were different in that NM073 was C18 aliphatic chain and NM074 was C20 aliphatic chain.
6-8 Week-old SD rats were randomly grouped by body weight, 5 per group, 4 groups in total. Rats in each group were dosed with the above siRNA conjugates by intrathecal administration, with an administration dose of 900 μg per rat, and an administration volume of 40 μL. PBS control group was administered with the same volume of siRNA conjugate-free PBS solution. The day of administration was recorded as D0, and the rats were sacrificed on D28 after administration. […]

target gene SOD1 [3] = assay: Test Example 8: inhibitory activity on target gene SOD1 in adipose tissues in different parts of mice; assay type: in vivo, C57BL/6j mice; conditions: D14; for Subcutaneous fat % Mean value of inhibition rate: abdominal subcutaneous fat; for Subcutaneous fat % Mean value of inhibition rate / Brown fat on back % Mean value of inhibition rate / Paragonadal fat % Mean value of inhibition rate: tail vein injection 5 mg/kg
Description: as §1, §2, §3, §4
The present test example evaluated, by an evaluation method for inhibitory activity on a target gene in mice, the inhibitory activity of siRNA sequence RZ899090 with the sense strand with the NM073 conjugation at Position 4, siRNA sequence RZ899091 with the sense strand with the NM074 conjugation at Position 4, siRNA sequence RZ899078 with the sense strand with the NM202 conjugation at Position 6 and siRNA reference sequence RZ899093 with the sense strand with the Uhd conjugation at Position 4, siRNA reference sequence RZ899076 with the sense strand with the NM200 conjugation at Position 4 on the target gene SOD1 in adipose tissues of interest in mice.
6-8 Week-old C57BL/6j mice were randomly grouped by body weight, 5 per group, 6 groups in total. Mice in each group were dosed with the above siRNA conjugates by tail vein injection, with an administration dose of 5 mg/kg per mouse, and an administration volume of 150 μL. PBS control group was administered with the same volume of siRNA conjugate-free PBS solution. The day of administration was recorded as D0, and 5 mice in each group were sacrificed on D14 after administration. Paragonadal fat, abdominal subcutaneous fat, and brown fat on back were respectively taken. RNA extraction, reverse transcription, and real-time fluorescence quantitative detection were performed on various tissues according to the above method, and gene expression differences were calculated by the above ΔΔCt method.

Substance	inhibitory activity compared with the vector-free siRNA sequence RX599002 (target gene SOD1 [1]; left and right hemisphere, lateral ventricle 150 μg per mouse)	Left hemisphere Mean value of inhibition rate (target gene SOD1 [1]; 150 μg per mouse)	activity compared with Uhd conjugated reference sequence RZ899093 and NM200 (C22) conjugated reference sequence RZ899076 (target gene SOD1 [1]; right hemisphere (administration side) and left hemisphere (non-administration side), 150 μg per mouse)	Right hemisphere Mean value of inhibition rate (target gene SOD1 [1]; 150 μg per mouse)	Cerebellum % Mean value of inhibition rate (target gene SOD1 [2]) [%]	Cortex % Mean value of inhibition rate (target gene SOD1 [2]) [%]	Hippocampus % Mean value of inhibition rate (target gene SOD1 [2]) [%]	level of inhibition on the target gene compared with the Uhd control conjugate (RZ899093) (target gene SOD1 [2]; intrathecal 900 μg per rat)	Cervical segment % Mean value of inhibition rate (target gene SOD1 [2]) [%]	Lumbar segment % Mean value of inhibition rate (target gene SOD1 [2]) [%]	Thoracic segment % Mean value of inhibition rate (target gene SOD1 [2]) [%]	Subcutaneous fat % Mean value of inhibition rate (target gene SOD1 [3]) [%]	Brown fat on back % Mean value of inhibition rate (target gene SOD1 [3]) [%]	inhibitory activity compared with the NM200 conjugated reference sequence RZ899076 (target gene SOD1 [3]; paragonadal fat and brown fat on back, tail vein 5 mg/kg)	Paragonadal fat % Mean value of inhibition rate (target gene SOD1 [3]) [%]	inhibitory action on the target gene compared with RZ899076 (target gene SOD1 [3]; subcutaneous fat, tail vein 5 mg/kg)
RZ899091: siRNA sequence with the sense strand with the NM074 (C20) conjugation at Position 4; SEQ ID NO: 16 / 23 (sense UUUNAAUCCUCACUCUAAA; antisense UUUAGAGUGAGGAUUAAAAUG; NM074 (C20) conjugate at sense position 4; modified_base 1..2 OTHER; 2'-methoxy and 5'-thiophosphate modified nucleotides; modified_base 3 OTHER; 2'-methoxy modified nucleotide; modified_base 4 OTHER; n is the synthetic nucleotide analog NM074 as described in the disclosure.; modified_base 5..6 OTHER; 2'-methoxy modified nucleotides; modified_base 7..10 OTHER; 2'-fluoro modified nucleotides; modified_base 11..19 OTHER; 2'-methoxy modified ; modified_base 1 OTHER; 2'-methoxy and 5'-thiovinylphosphonate modified nucleotide; modified_base 2 OTHER; 2'-fluoro and 5'-thiophosphate modified …)	superior inhibitory activity	70.41	substantially comparable or superior activity	82.32	73.86	28.78	70.69	superior level of inhibition on the target gene in the spinal cord segment, cerebellum, and hippocampus	92.15	95.17	98.15	67.17	80.97	equivalent or superior inhibitory activity	75.20	substantially comparable
RZ899093: siRNA reference sequence with the sense strand with the Uhd (C16) conjugation at Position 4; SEQ ID NO: 13 / 23 (sense mU*mU*mU[Uhd]mAmAfUfCfCfUmCmAmCmUmCmUmAmAmA; antisense {VP}-mU*fU*mUmAmGfAmGmUmGmAmGfGmAfUeUfAmAmAmA*mU*mG) [reference compound]		70.23		80.47	55.89	36.29	52.87		69.68	95.31	94.90	85.92	77.13		76.20	
